Assay [1] addresses T1, IGFBP-1 (Homo sapiens, UniProt P08833).
T1 construct: biotin (chemical label, EZ-LINK NHS-SS-Biotin)
T1 sequence (P08833 26-259): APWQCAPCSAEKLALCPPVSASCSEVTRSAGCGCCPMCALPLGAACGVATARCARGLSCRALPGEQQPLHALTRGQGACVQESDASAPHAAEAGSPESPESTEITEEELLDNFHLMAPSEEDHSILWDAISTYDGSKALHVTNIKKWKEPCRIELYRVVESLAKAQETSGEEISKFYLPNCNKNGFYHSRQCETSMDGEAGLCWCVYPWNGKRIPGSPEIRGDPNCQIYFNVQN
In words: Biotin-BP plate (ELISA) assay, biotinylated IGFBP-1 binding to IGF-I. The following applies: for IC50: 20 nM biotinylated IGFBP-1, IGF-I coated plate, read-out: ELISA IC50, inhibition of IGF-I binding to IGFBP-1. On the procedure: 1. Biotin-BP Assay (for IGFBP-1 Binders)
(§1) For inhibition of IGFBP-1 binding, IGFBP-1 (as well as IGFBP-3 as a control) were biotinylated as described above. MAXISORP™plates were coated and blocked as described above, using 2 μg/mL IGF-I. In a separate plate, serial dilutions of peptide were premixed with a constant concentration (20 nM) of biotinylated IGFBP-1. After 20 min. at room temperature, the mixture was added to the IGF-I plate. The peptide/IGFBP mix was then removed and the plate was washed ten times with PBS buffer containing 0.05% TWEEN-20™ surfactant. Bound biotin-IGFBP-1 was then detected using streptavidin-conjugated horse radish peroxidase, and a chromogenic substrate.
A second series of peptides made use of non-natural amino acids to probe whether other structural features such as an added methyl group at the alpha carbon, or an isomer (D-alanine) could affect peptide binding to IGFBP-1.
(§2) Substitutions at the N-terminus or C-terminus yielded affinity improvements. […] All of these peptides had similar or improved apparent affinity for IGFBP-1 as compared with bp1-01 and bp1-02 and are thus expected to increase the availability of IGF-I in an in vitro cell culture assay.
Background: In an ELISA, binding on a coated surface is turned into a signal by an enzyme label.

Assay [2] addresses T2, IGFBP-3 (Homo sapiens, UniProt P17936). In words: Biotin-BP plate assay, biotinylated IGFBP-3 binding to IGF-I (control). The following applies: FIG. 34. On the procedure:
as §1

In assay [3] the target is T1, IGFBP-1. Nature of the assay: KIRA assay of IGF-I activity with IGF-I plus IGFBP-1 and peptide. The assay is classed as cell-based. As to conditions: peptide plus IGF-I plus IGFBP-1; read-out: IC50 for blocking the inhibition of IGF-I activity by IGFBP-1 (KIRA). On the procedure:
(§3) C. In Vitro Activation (KIRA)
(§4) The ability of several synthetic peptides to block IGF-I binding to IGFBPs and release functional IGF-I was tested in a KIRA assay of IGF-I activity, as described in Example 1. Cells were treated with IGF-I alone, peptide alone, peptide plus IGF-I, IGF-I plus binding protein (IGFBP-1 or IGFBP-3), or IGF-I plus binding protein (IGFBP-1 or IGFBP-3) and peptide.

In assay [4] the target is T2, IGFBP-3. Nature of the assay: KIRA assay of IGF-I activity with IGF-I plus IGFBP-3 and peptide. The assay is classed as cell-based. The following applies: FIG. 37D. On the procedure:
as §3, §4
It is believed that this would drop to 30 uM with a 1:1 ratio.

For assay [5], the target named is T1, IGFBP-1. In words: BIAcore kinetics on immobilized IGFBP-1. The assay is classed as binding. The following applies: IGFBP-1 coupled to dextran chip. An excerpt:
The kinetics of bp1-01 peptide variants were examined in a BIAcore™ (BIAcore, Inc., Piscataway, N.J.) assay using IGFBP-1 covalently coupled via EDC/NHS (as described by the manufacturer) to a dextran chip. […] The latter implies a half-life for peptide dissociation from IGFBP-1 of approximately 28 sec. The association rate constant is moderately fast, consistent with the notion that the peptide may not undergo significant conformation change upon binding to IGFBP-1.

Assay [6] has as its target T1, IGFBP-1. In words: BIAcore competition assay, IGFBP-1 binding to IGF-I. The following applies: bp1-01 Ala-scan variants by BIAcore; wt = bp1-01. The protocol: (§5) Two series of synthetic peptide variants were generated to determine which side chains of the bp1-01 peptide might contribute directly to binding IGFBP-1. In the first series an alanine-scanning approach (Cunningham and Wells, Science, 244: 1081-1085 (1989)) was used to remove that portion of each side chain beyond the beta carbon. The contribution of these atoms to the free energy of binding of the peptide to IGFBP-1 was then assessed by measuring the potency (IC50) of the variant for inhibiting IGFBP-1 binding to IGF-I or IGF-II in a BIAcore™competition assay, analogous to that described for IGFBP-3 (see Example 7).
as §2
(Surface plasmon resonance follows binding to a sensor surface in real time, without labels.)

For assay [7], the target named is T1, IGFBP-1. Nature of the assay: BIAcore competition assay, IGFBP-1 binding to IGF-II. As to conditions: bp1-01 Ala-scan variants by BIAcore. The protocol:
as §5

The target in assay [8] is T1, IGFBP-1. Nature of the assay: IGF-blocking phage assay on IGFBP-1 coated plate. The assay is classed as binding. As to conditions: FIG. 28. The protocol: To distinguish among these possibilities, phage clones were tested for the ability to bind to IGFBP-1 or IGFBP-3 in the presence and absence of IGF-I.
IGFBP-1 or IGFBP-3 was coated directly onto MAXISORP™ plates as above. Phage from clonal cultures were mixed with IGF-I (100 nM final concentration), and incubated with the immobilized IGFBP for 1 hour at room temperature. The plates were then washed ten times, as above, and a solution of rabbit anti-phage antibody mixed with a goat-anti-rabbit conjugate of horse radish peroxidase was added. After an incubation of 1 hour at room temperature, the plates were developed with a chromogenic substrate, o-phenylenediamine (Sigma). The reaction was stopped with addition of ½ volume of 2.5 M H2SO4. Optical density at 490 nm was measured on a spectrophotometric plate reader.
These peptides are thus likely to occupy an overlapping site with the IGF-binding epitope on IGFBP-3. […] Additional peptide-phage clones were screened similarly, at a low concentration of phage, with and without IGF-I.

[9] abbreviates: g8 bp1-01 selectants by ELISA plate assay, wt = bp1-01.

Values joined by “and” are separate entries in the source; they are usually repeats but may differ in a detail not shown here. Equal values may be shown once. Positions of bridges follow the written chain, without caps; N, C: chain ends. Residues, ends and D or L forms follow the SMILES beside them.

T2 sequence (P17936 28-291): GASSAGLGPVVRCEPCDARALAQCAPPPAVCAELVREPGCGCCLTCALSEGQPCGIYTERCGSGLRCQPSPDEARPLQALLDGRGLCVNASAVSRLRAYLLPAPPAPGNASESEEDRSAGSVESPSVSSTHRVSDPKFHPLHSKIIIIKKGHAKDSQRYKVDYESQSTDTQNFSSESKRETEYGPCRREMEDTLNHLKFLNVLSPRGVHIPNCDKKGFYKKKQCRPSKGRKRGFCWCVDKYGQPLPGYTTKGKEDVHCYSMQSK

As usually defined, the IC50 is the concentration needed to halve the response being measured. With `CC(C)C[C@@H]1NC(=O)[C@H](Cc2c[nH]c3ccccc23)NC(=O)[C@H](CCC(N)=O)NC(=O)[C@H](CC(C)C)NC(=O)[C@@H]2CCCN2C(=O)CNC(=O)[C@H](C)NC(=O)[C@H](CCCNC(=N)N)NC(=O)[C@@H](N)CSSC[C@@H](C(=O)N[C@@H](CCC(=O)O)C(=O)N[C@@H](CCCCN)C(=O)N[C@@H](Cc2ccc(O)cc2)C(=O)N[C@@H](Cc2ccccc2)C(=O)NCC(N)=O)NC1=O` [bp1-01] (H-CRAGPLQWLCEKYFG-NH2; disulfide 1-10; N-terminus assumed), the concentration for half-maximal inhibition (IC50) on IGFBP-1 [1] is ~180 nM and 180 nM; on IGFBP-1 [3] it was 397 nM. For the same molecule, the “IGF-I Inhibition IC50 (mut)/IC50 (wt)” value on IGFBP-1 [1] (C-terminal bp1-01 variants by ELISA) stood at 1; on IGFBP-1 [1] (bp1-01 non-natural variants by ELISA, a = D-alanine, aib = alpha-aminoisobutyrate), 1; on IGFBP-1 [1] (setting [9]), 1; at IGFBP-1 [6] it was 1. In addition, the “inhibition of biotinylated IGFBP-3 binding to IGF-I plate” value on IGFBP-3 [2] is listed as “no inhibition”. Further, the “effect on IGF-I activity in KIRA with IGF-I plus IGFBP-3” value at IGFBP-3 [4] is on record as “Neither of these peptides showed activity”. On IGFBP-1 [5], the “dissociation rate constant / dissociation kinetics” value is recorded as “too rapid to measure”. Further, on IGFBP-1 [7], the “IGF-II Inhibition IC50 (mut)/IC50 (wt)” value stood at 1.
Take `CC(C)C[C@@H]1NC(=O)[C@H](Cc2c[nH]c3ccccc23)NC(=O)[C@H](CCC(N)=O)NC(=O)[C@H](CC(C)C)NC(=O)[C@@H]2CCCN2C(=O)CNC(=O)[C@H](C)NC(=O)[C@H](CCCNC(=N)N)NC(=O)[C@@H](NC(=O)CNC(=O)[C@@H](NC(=O)[C@H](CCC(=O)O)NC(=O)[C@@H](N)CO)C(C)C)CSSC[C@@H](C(=O)N[C@@H](CCC(=O)O)C(=O)N[C@@H](CCCCN)C(=O)N[C@@H](Cc2ccc(O)cc2)C(=O)N[C@@H](Cc2ccccc2)C(=O)NCC(N)=O)NC1=O` [bp1-02] (H-SEVGCRAGPLQWLCEKYFG-NH2; disulfide 5-14; N-terminus assumed): the concentration for half-maximal inhibition (IC50) on IGFBP-1 [1] was ~50 nM and 50 nM; at IGFBP-1 [3], 187 nM. Moreover, the “IGF-I Inhibition IC50 (mut)/IC50 (wt)” value at IGFBP-1 [1] (setting [9]) came to 0.37. The “inhibition of biotinylated IGFBP-3 binding to IGF-I plate” value on IGFBP-3 [2] is “no inhibition”. The “effect on IGF-I activity in KIRA with IGF-I plus IGFBP-3” value on IGFBP-3 [4] is “Neither of these peptides showed activity”. Also, on IGFBP-1 [5] (read-out: association rate constant), the kon amounted to 230000 M⁻¹ s⁻¹. Further, the koff on IGFBP-1 [5] (read-out: dissociation rate constant / dissociation kinetics) is 0.0503 s⁻¹.
Take SEVGCRAGPLQWLCEKYF [HL-1]: on IGFBP-1 [8], the “inhibition of phage binding to IGFBP-1 by IGF-I in phage titration” value is given as “inhibited by IGF-I for binding to IGFBP-1 at some phage concentration”.

These data come from patent US6632794B1, “Insulin-like growth factor agonist molecules” (Genentech, Inc., priority 1997, dated 2003).
